The values that follow are results of earlier work, collected in EP2697366B1, “B[…] THE PRESERVATION OF CELLULAR FUN[…] CLINICAL CELL THERAPY” (Johann Wolfgang Goethe-Universität, Frankfurt am Main, priority 2011, dated 2018).

For data set [1] the following is noted: in vivo.
For data set [2] the following is noted: two large clinical studies.

Turning to `CC[C@H](C)[C@H](NC(=O)[C@H](CCC(=O)O)NC(=O)[C@H](CCC(=O)O)NC(=O)[C@H](Cc1ccccc1)NC(=O)[C@H](CC(=O)O)NC(=O)CNC(=O)[C@H](CC(N)=O)NC(=O)CNC(=O)CNC(=O)CNC(=O)CNC(=O)[C@@H]1CCCN1C(=O)[C@H](CCCNC(=N)N)NC(=O)[C@@H]1CCCN1C(=O)[C@H](N)Cc1ccccc1)C(=O)N1CCC[C@H]1C(=O)N[C@@H](CCC(=O)O)C(=O)N[C@@H](CCC(=O)O)C(=O)N[C@@H](Cc1ccc(O)cc1)C(=O)N[C@@H](CC(C)C)C(=O)O` [Bivalirudin], the Eliminationshalbwertszeit result in data set [1] is given as “ca. 25 Minuten”. Further, the “schwere Blutungskomplikationen” value in data set [2] is on record as “hochsignifikanten Reduktion schwerer Blutungskomplikationen”.
